One substance from US10202604B2, “Methods of using microRNA-141” (Stemirna Therapeutics Co., Ltd., priority 2016, dated 2019) can be followed below.

Series [1] deals with cultured as well as primary patient human prostate cancer cells. The series is described as follows: Matrigel invasion assay. The series is classed as cell-based. The procedure: (§1) For Boyden Chamber invasion assays, Biocoat Matrigel Invasion Chamber (BD, Franklin Lakes, N.J.) was employed following the manufacturer's instructions. Briefly, 100,000-200,000 of prostate cancer cells after transfection with […]/miR-141 oligos or infection with miR-141 over-expressing lentivirus were seeded into each well. Medium with 20% fetal bovine serum was used in the lower chamber as chemo-attractant. After 20 h, cells were fixed and stained using HEMA stain. Representative images were taken for each membrane and cells were counted. Migration assays were simultaneously performed in control wells using identical protocol with Transwell (Costar; […]) without Matrigel. In some experiments, Du145 cells were plated one day before and treated with 1, 2, and 5 μM of DZNep (3-Deazaneplanocin A) for 96 h after which cells were harvested and used in invasion assays and Western blot.

Series [2] relates to CD44+ and bulk human prostate cancer (HPCa) cells freshly purified from patient tumors. The series is described as follows: Clonal and sphere formation assays, primary patient cells. The series is classed as cell-based. As to the method: Average % of CD44^+ cells (as determined by flow analysis; n=3-5) is indicated for each cell type (UD, undetectable). […] Purified CD44^+ Du145 cells were transfected with NC or miR-141 oligos (30 nM, 48 h) and then plated for clonal (1D & 1E) and sphere (1F) assays. Bars represent mean±SD. *, P<0.05; **, P<0.01. […] Shown are tumor images, cell numbers injected (100,000 cells per injection for all models), site of injection (s.c, subcutaneously) and days (d) when tumors were harvested. Tumor weight and incidences with corresponding P values are also indicated. ns, not significant. […] For 1st generation (1°) sphere assays, 1,000 cells per well were plated in triplicate for each group in 12-well plate and results scored in 11 days. For 2nd generation (2°), the 1° spheres were harvested, digested with Collagenase and Trypsin into single cells, 1,000 cells/well were plated, and results scored in 10 days. Quantification of the colonies was plotted (1 L; **P<0.01). […]
For clonal assays, cultured prostate cancer cells or human prostate cancer cells freshly purified from patient primary tumors were plated at a clonal density (i.e., 100 cells/well) in a 6-well plate. The number of holoclones (33) was counted several days later. […] Floating spheres that arose in 1-2 weeks were counted. […]

Series [3] has as its system EZH2. Description: EZH2 mRNA and protein levels. The series is classed as cell-based, human. The procedure: FIG. 6A: Putative binding site of miR-141 in EZH2 3′-UTR. […] FIG. 6C is a qPCR analysis of EZH2 mRNA levels in CD44^+ PCa cells. Bars, mean±SD. *P<0.05; **P<0.01. […] Bars, mean±SD. **P<0.01. […] Western blotting was performed in PC3 and Du145 cells transfected with NC (60 nM) or miR-141 (30 or 60 nM) oligos (72 h). Relative protein levels were measured by densitometry and normalized to GAPDH levels (indicated below). […] Du145 cells plated one day before were treated with 1, 2, and 5 μM of DZNep for 96 h and then cells were harvested for invasion assays. **P<0.01. Inset, WB showing reduced EZH2 proteins by DZNep. […] Du145 cells were transfected with 10 nM scramble siRNA (siCon) or EZH2-targeting siRNAs (siEZH2) or siEZH2 plus anti-miR-141 (30 nM). 48 h later, cells were harvested for invasion assays. Bars, mean±SD. **P<0.01. […] Du145 cells were co-transfected with 30 nM NC or miR-141 oligos together with empty vector or pCMV-EZH2 construct. After 48 h, cells were harvested for invasion assay. Bars, mean±SD. **P<0.01.
Total RNA was extracted using microRNA isolation kit (Life Technologies) according to the manufacturer's instructions. microRNA qPCRs were performed using TaqMan microRNA assays (Life Technologies). qPCR data for microRNAs were normalized to RNU48 whereas qPCR data for mRNAs were normalized to GAPDH.
as §1, with “In some experiments, Du145 cells were plated one day before and treated with 1, 2, and 5 μM of DZNep (3-Deazaneplanocin A) for 96 h after which cells were harvested and used in invasion assays and Western blot.” left out

Take “miR-141: miR-141 mirVana mimics (Life Technologies); microRNA-141 oligonucleotide may have SEQ ID NO: 1; in some experiments over-expressed by lentiviral vectors (UAACACUGUCUGGUAAAGAUGG; listed as RNA, further chemistry not given here) [miR-141 mirVana mimics (Life Technologies); in some experiments over-expressed by lentiviral vectors]”: the invasive capabilities entry in series [1] was “significantly inhibited”. In addition, the clonal growth entry in series [2] (miR-141 overexpression (Lenti-141 MOI 10, 72 h)) is on record as “inhibited”. Also, the serial sphere formation result in series [2] (miR-141 overexpression, CD44+ and bulk HPCa cells, 1st and 2nd generation spheres in Matrigel) is on record as “inhibited”. Moreover, the “EZH2 RNA level” value in series [3] (miR-141 overexpression in prostate cancer cells) was “significantly reduced”. In addition, the EZH2 protein level entry in series [3] (miR-141 overexpression, PC3 and Du145, 30 or 60 nM, 72 h) is listed as “significantly reduced”.
